Measured values published in patent US6469008B2, “(R)-hydroxynefazodone antipsychotic therapy” (Sepracor Inc., priority 1999, dated 2002).
pIC50: −log10 of the molar value.

How the values were obtained:
Human D2 receptor = biological target: T1, Human D2 receptor (Homo sapiens, UniProt P14416); assay: Dopamine D2 receptor binding; settings: [3H]spiperone, transfected A9L cell membranes
T1 construct: expressed in transfected cells; host or cells: A9L cells
Method: (§1) Dopamine and serotonin receptor binding assays were performed in a standard manner with the incubation of membrane preparations in an assay buffer in the presence of a known radioactively labeled specific ligand for the receptor subtypes. Nonspecific binding was determined by assessing binding in the presence of excess ligand. Specific binding was measured as the total labeled ligand bound after the nonspecific binding was subtracted. The effect of the tested agents was measured by determining the competition for the receptor binding across a concentration range. Subsequently, an IC50 was determined for the agents tested. More specific details are provided below for several of the assays performed.
(§2) Aliquots of transfected A9L cell membrane preparations corresponding to 20-40 μg protein are incubated for 60 min at 22° C. in 250 μl of 50 mM Tris-HCl buffer (pH 7.4) containing 120 mM NaCl, 5 mM KCl, 5 mM MgCl2, 1 mM EDTA, 0.3 nM [^3H]spiperone and increasing concentrations of the competing drugs. Nonspecific binding is determined in the presence of 10 μM (+)butaclamol. After incubation, the samples are filtered rapidly under vacuum through glass fiber filters (GF/B, Packard) and rinsed several times with ice-cold 50 mM Tris-HCl using a cell harvester (Packard). Bound radioactivity is measured with a scintillation counter (Topcount, Packard) using a liquid scintillation cocktail (Microscint 0, Packard). The reference compound for this assay is (+)butaclamol.

5-HT1B = biological target: T2, 5-HT1B (Homo sapiens, UniProt P28222); assay: 5-HT1B receptor binding; settings: read-out: Serotonin Receptor Binding 5-HT1B (IC50)
T2 construct: host or cells: membrane preparations
Method: as §1

5-HT1D = biological target: T3, 5-HT1D (Homo sapiens, UniProt P28221); assay: 5-HT1D receptor binding; settings: read-out: Serotonin Receptor Binding 5-HT1D (IC50)
T3 construct: host or cells: membrane preparations
Method: as §1

5-HT5A = biological target: T4, 5-HT5A (Homo sapiens, UniProt P47898); assay: 5-HT5A receptor binding; settings: read-out: Serotonin Receptor Binding 5-HT5A (IC50)
T4 construct: host or cells: membrane preparations
Method: as §1

α1 Receptor = assay: α1 receptor binding; settings: read-out: α1 Receptor Binding Alpha1 (IC50)
[1] = cited from earlier work
[2] = test system: alpha2 adrenergic receptors; settings: in vitro binding studies; cited from earlier work
[3] = test system: beta adrenergic receptors; settings: in vitro binding studies; cited from earlier work
5-HT1A receptors [4] = biological target: T5, 5-HT1A receptors (Homo sapiens, UniProt P08908); settings: in vitro binding studies; cited from earlier work
T5 sequence (P08908 1-422): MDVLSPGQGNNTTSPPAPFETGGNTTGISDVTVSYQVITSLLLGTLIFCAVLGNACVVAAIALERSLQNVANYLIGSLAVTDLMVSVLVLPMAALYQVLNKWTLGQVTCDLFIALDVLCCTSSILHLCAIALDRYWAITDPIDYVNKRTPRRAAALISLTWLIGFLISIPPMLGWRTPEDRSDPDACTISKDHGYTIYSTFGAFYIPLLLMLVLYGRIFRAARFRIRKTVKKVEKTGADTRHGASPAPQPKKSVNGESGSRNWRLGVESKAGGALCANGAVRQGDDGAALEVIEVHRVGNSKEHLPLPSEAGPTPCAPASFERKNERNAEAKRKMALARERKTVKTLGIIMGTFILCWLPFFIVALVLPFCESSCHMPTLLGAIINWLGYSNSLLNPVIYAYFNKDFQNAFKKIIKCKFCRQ

cholinergic receptors = settings: in vitro binding studies; cited from earlier work
dopaminergic receptors = settings: in vitro binding studies; cited from earlier work
benzodiazepine receptors = settings: in vitro binding studies; cited from earlier work
[5] = test system: alpha1-adrenergic receptors; settings: cited from earlier work
5-HT1A receptors [6] = biological target: T5, 5-HT1A receptors; assay: 5-HT1A receptor binding; set-up: expressed in transfected cells; host or cells: CHO cells; settings: [3H]8-OH-DPAT, transfected CHO cell membranes; read-out: Serotonin Receptor Binding 5-HT1A (IC50)
Method: as §1
as §2, with “CHO” for “A9L”, “7-15” for “20-40”, “10” for “120”, “MgSO4, 0.5” for “NaCl, 5 mM KCl, 5 mM MgCl2, 1”, “[^3H]8-OH-DPAT” for “[^3H]spiperone”, “8-OH-DPAT.” for “(+)butaclamol.”

T1 sequence (P14416 whole entry): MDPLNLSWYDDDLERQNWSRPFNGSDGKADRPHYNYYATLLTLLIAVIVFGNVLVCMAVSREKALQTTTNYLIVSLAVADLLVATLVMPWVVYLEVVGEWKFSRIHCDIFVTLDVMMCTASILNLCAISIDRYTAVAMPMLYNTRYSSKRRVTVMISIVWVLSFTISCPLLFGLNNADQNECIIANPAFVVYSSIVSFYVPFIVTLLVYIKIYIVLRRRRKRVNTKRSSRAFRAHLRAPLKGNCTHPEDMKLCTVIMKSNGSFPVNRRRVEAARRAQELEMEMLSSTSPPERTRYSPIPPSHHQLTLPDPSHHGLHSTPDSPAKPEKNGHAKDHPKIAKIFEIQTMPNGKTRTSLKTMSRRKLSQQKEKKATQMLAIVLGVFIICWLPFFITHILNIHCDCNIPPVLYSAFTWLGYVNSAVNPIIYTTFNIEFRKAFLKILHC
T3 sequence (P28221 whole entry, species assumed): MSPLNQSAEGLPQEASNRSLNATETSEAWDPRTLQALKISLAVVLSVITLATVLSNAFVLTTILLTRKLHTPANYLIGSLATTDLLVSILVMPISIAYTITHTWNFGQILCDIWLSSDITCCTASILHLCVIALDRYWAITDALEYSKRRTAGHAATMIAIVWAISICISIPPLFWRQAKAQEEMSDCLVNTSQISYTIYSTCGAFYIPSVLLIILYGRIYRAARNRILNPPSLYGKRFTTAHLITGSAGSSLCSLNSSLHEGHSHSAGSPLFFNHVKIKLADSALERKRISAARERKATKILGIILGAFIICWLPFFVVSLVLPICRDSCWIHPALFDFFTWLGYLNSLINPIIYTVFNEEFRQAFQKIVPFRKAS
T4 sequence (P47898 whole entry, species assumed): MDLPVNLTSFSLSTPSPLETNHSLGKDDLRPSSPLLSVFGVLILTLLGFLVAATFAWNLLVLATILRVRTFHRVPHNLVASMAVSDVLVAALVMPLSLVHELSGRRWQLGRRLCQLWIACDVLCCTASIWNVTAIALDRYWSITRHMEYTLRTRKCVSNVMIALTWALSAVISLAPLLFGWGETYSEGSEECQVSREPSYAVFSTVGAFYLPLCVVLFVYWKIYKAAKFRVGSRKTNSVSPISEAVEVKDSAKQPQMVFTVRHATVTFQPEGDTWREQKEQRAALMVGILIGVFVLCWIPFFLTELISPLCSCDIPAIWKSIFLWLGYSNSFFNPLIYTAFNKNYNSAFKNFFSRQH
T2 sequence (P28222 whole entry, species assumed): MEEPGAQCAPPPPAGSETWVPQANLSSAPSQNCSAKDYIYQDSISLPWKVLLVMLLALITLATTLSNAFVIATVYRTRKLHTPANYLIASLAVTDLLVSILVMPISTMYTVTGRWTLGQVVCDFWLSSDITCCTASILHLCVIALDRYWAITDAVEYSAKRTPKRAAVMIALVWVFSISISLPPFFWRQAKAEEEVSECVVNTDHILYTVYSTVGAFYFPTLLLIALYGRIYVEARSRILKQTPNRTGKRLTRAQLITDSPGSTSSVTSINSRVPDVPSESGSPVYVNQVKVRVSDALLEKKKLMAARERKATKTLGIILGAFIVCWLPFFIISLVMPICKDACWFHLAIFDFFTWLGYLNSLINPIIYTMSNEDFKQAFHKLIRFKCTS

CCc1nn(CCCN2CCN(c3cccc(Cl)c3)CC2)c(=O)n1CCOc1ccccc1 [Nefazodone]
pIC50 (Human D2 receptor): 6.15 | pIC50 (5-HT1B): 5.73 | pIC50 (5-HT1D): 6.03 | pIC50 (5-HT5A): 5.81 | pIC50 (α1 Receptor): 6.51 | kinetics for dose and time (AUC and Cmax) ([1]; AUC and Cmax increasing more than proportionally with dose and upon multiple dosing): nonlinear kinetics | half-life ([1]; in vivo): 2 to 4 h | time of peak plasma concentrations ([1]; in vivo): about one | absolute bioavailability ([1]; low and variable because of extensive metabolism): about 20% | affinity for alpha2 adrenergic receptors [2]: no significant affinity | affinity for beta adrenergic receptors [3]: no significant affinity | affinity for 5-HT1A receptors (5-HT1A receptors [4]): no significant affinity | affinity for cholinergic receptors (cholinergic receptors): no significant affinity | affinity for dopaminergic receptors (dopaminergic receptors): no significant affinity | affinity for benzodiazepine receptors (benzodiazepine receptors): no significant affinity | action on alpha1-adrenergic receptors [5]: antagonize | pIC50 (5-HT1A receptors [6]): 6.20
